Experiments:
[1] = Lung histopathology (HE, HES; eosinophil infiltration); assay type: in vivo, cynomolgus macaques; settings: for Lung eosinophil infiltration: HES staining
Procedure: Lung tissue samples were collected at necropsy and fixed by immersion in 10% neutral buffered formalin (Sigma) for a minimum of 14 days. The tissue samples were trimmed, processed and embedded in paraffin. 4 to 5 µm-thick sections were cut. For histopathology evaluation, slides were routinely stained with hematoxylin-eosin (HE) or with hematoxylin-eosin-saffron (HES). For the study of the pulmonary infiltration by eosinophils, the histopathologic evaluation was performed by a board-certified veterinary pathologist.
For hematoxylin-eosin staining, formalin-fixed tissues were processed and embedded in paraffin and tissue sections were then deparaffinized, rehydrated, rinsed, and placed in PBS before harrys hematoxylin staining (Diapath, diluted 1/3), washed with PBS and stained with eosin 1% (Sigma-Aldrich). Slide were washed with water dehydrated and mounted with DPX mounting medium (Sigma-Aldrich). For the study of eosinophils infiltration, slides were stained in addition with saffron and analysed by a board-certified veterinary pathologist.

MeV IC323-eGFP = test: Haematological parameters during MeV infection; assay type: in vivo, Cynomolgus monkeys (Macaca fascicularis)
Procedure: Supplementary figure S6. Evolution of the hematological parameters during the MeV infection. Major PBMC populations in blood of cynomolgus macaques were followed using Sysmex XT2000i Vet automatic analyzer, after nebulization of either 3 ml of 0.9% NaCl (C) or […] of HRC4 peptide (P) and MeV infection. Transient lymphopenia is observed in the absence of peptide protection.
Lymphocytes concentration (K/uL)
Monocytes concentration (K/uL)

[2] = Laser diffraction and output measurement of the nebulized aerosol; assay type: physicochemical; settings: HRC4 4 mg/ml, 3 ml, prototype mesh nebulizer, laser diffraction; mean +/- SD of four devices
Procedure: The aerodynamic performances of the aerosols generated by the prototype mesh nebulizer were determined by laser diffraction using a Spraytec™ instrument (Malvern Instruments Ltd., Malvern, UK) and the Spraytec inhalation cell (Malvern Instruments Ltd., Malvern, UK) connected to an aspiration carried out by a vacuum pump set to 30-50 L/min[70]. The prototype mesh nebulizers (n=4) were loaded with 3 ml of either NaCl 0.9% or the HCR4 peptide (4 mg/ml, dissolved as described above) and then connected to the inhalation cell. Nebulization duration was notified at the end of the complete aerosolization of the loaded 3 ml. Diffraction data and volume distribution were automatically registered by the Spraytec software.
The output of nebulizer was determined by the difference between the weight of the nebulizer before and after nebulization and was expressed in percentage of the loaded volume. The output rate of each nebulizer (in ml/min) was then determined as the ratio between the output and the nebulization duration. At least, the residual volume corresponding to the volume of liquid remaining in the reservoir at the end of the nebulization was also determined by weighting the nebulizer before loading it and after nebulization.

Question: What does the source list for `CC[C@H](C)[C@H](NC(=O)[C@H](C)NC(=O)[C@H](CC(N)=O)NC(=O)CNC(=O)[C@H](CC(C)C)NC(=O)[C@H](CC(N)=O)NC(=O)[C@@H](NC(=O)CNC(=O)[C@@H](NC(=O)[C@H](CC(=O)O)NC(=O)[C@H](CC(C)C)NC(=O)[C@H](CCCNC(=N)N)NC(=O)[C@H](CCC(=O)O)NC(=O)[C@H](CC(C)C)NC(=O)[C@H](CO)NC(=O)[C@@H](NC(=O)[C@@H]1CCCN1C(=O)[C@@H]1CCCN1)[C@@H](C)CC)C(C)C)[C@@H](C)O)C(=O)N[C@@H](C)C(=O)N[C@@H](CCCCN)C(=O)N[C@@H](CC(C)C)C(=O)N[C@@H](CCC(=O)O)C(=O)N[C@@H](CC(=O)O)C(=O)N[C@@H](C)C(=O)N[C@@H](CCCCN)C(=O)N[C@@H](CCC(=O)O)C(=O)N[C@@H](CC(C)C)C(=O)N[C@@H](CC(C)C)C(=O)N[C@@H](CCC(=O)O)C(=O)N[C@@H](CO)C(=O)N[C@@H](CO)C(=O)N[C@@H](CC(=O)O)C(=O)N[C@@H](CCC(N)=O)C(=O)N[C@H](C(=O)N[C@@H](CC(C)C)C(=O)N[C@@H](CCCNC(=N)N)C(=O)NCC(=O)N[C@@H](CO)C(=O)NCC(=O)N[C@@H](CO)C(=O)NCC(=O)N[C@@H](CSC1CC(=O)N(CCCC(=O)NCCOCCOCCOCCOCCC(=O)NCCN(CCNC(=O)CCOCCOCCOCCOCCNC(=O)CCCN2C(=O)CC(SC[C@H](NC(=O)CNC(=O)[C@H](CO)NC(=O)CNC(=O)[C@H](CO)NC(=O)CNC(=O)[C@H](CCCNC(=N)N)NC(=O)[C@H](CC(C)C)NC(=O)[C@@H](NC(=O)[C@H](CCC(N)=O)NC(=O)[C@H](CC(=O)O)NC(=O)[C@H](CO)NC(=O)[C@H](CO)NC(=O)[C@H](CCC(=O)O)NC(=O)[C@H](CC(C)C)NC(=O)[C@H](CC(C)C)NC(=O)[C@H](CCC(=O)O)NC(=O)[C@H](CCCCN)NC(=O)[C@H](C)NC(=O)[C@H](CC(=O)O)NC(=O)[C@H](CCC(=O)O)NC(=O)[C@H](CC(C)C)NC(=O)[C@H](CCCCN)NC(=O)[C@H](C)NC(=O)[C@@H](NC(=O)[C@H](C)NC(=O)[C@H](CC(N)=O)NC(=O)CNC(=O)[C@H](CC(C)C)NC(=O)[C@H](CC(N)=O)NC(=O)[C@@H](NC(=O)CNC(=O)[C@@H](NC(=O)[C@H](CC(=O)O)NC(=O)[C@H](CC(C)C)NC(=O)[C@H](CCCNC(=N)N)NC(=O)[C@H](CCC(=O)O)NC(=O)[C@H](CC(C)C)NC(=O)[C@H](CO)NC(=O)[C@@H](NC(=O)[C@@H]3CCCN3C(=O)[C@@H]3CCCN3)[C@@H](C)CC)C(C)C)[C@@H](C)O)[C@@H](C)CC)[C@@H](C)CC)C(=O)O)C2=O)CCO[C@H]2CC[C@@]3(C)C(=CC[C@H]4[C@@H]5CC[C@H]([C@H](C)CCCC(C)C)[C@@]5(C)CC[C@@H]43)C2)C1=O)C(=O)O)[C@@H](C)CC` (some centres unmarked) [HRC4]?
Answer: Lung eosinophil infiltration ([1]; HRC4-treated animals P1 and P3): no eosinophil infiltration was visible; Lung eosinophil infiltration ([1]; animals that developed MeV infection (incl. HRC4-treated P2)): minimal although noticeable eosinophil infiltration; Histological analysis of lungs ([1]; lungs collected from nebulized animals): did not reveal any abnormalities; Duration of leukopenia (MeV IC323-eGFP; HRC4-treated animal P2): 9-13 days p.i.; Total white blood cell and lymphocyte counts (MeV IC323-eGFP; day 6 following MeV infection, HRC4-treated macaques): remained stable; < 2µm [2]: 13.9 +/- 2.0%; < 5µm [2]: 57.4 +/- 3.9%; VMD [2]: 4.43 +/- 0.26 µm

Source: PMC9616412, “Nebulized fusion inhibitory peptide protects cynomolgus macaques from measles virus infection” (Nature Communications, 2022)
